“Also recorded” adds a separate entry of the source.
Columns and labels:
[1] = tested on: rat vas deferens smooth muscle (partly depolarized); test: K+-induced (20 mM K) contracture tension, dose-response comparison; settings: for activity in enhancing K+-induced contracture tension: parallel trials of ABA and BAY K 8644, result in words
Method: Smooth muscle preparations were obtained from male Wistar strain albino rats. The animals were killed by a blow to the head and smooth muscle strips (about 2 mm x 10 mm) were dissected from the bladder. The vasa deferentia were divided into two portions and longitudinally bisected. Tests on cardiac muscle were carried out using isolated cannulated flounder heart. […] MgCl₂ : 1.2mM The Krebs solution was adjusted to pH 7.3 with HCl and was continuously aerated and maintained at 37°C.
(§1) To record tension the muscle preparations were mounted vertically in jacketed organ baths which were continuously aerated and whose contents could be rapidly changed. The preparations were attached to a set of Grass Instruments ST 0.3C force displacement transducers held in adjustable rackwork, and the racks were adjusted to put slight tension on the preparations. After mounting in the perfusion baths the preparations were allowed to equilibrate for 1 hour, the bath saline being changed every 15 min. The force displacement transducer outputs were connected to a four-channel Grass model 79 polygraph. The stimulation electrode terminals were attached to Grass SIU 5 isolation units connected to two Grass S48 stimulators driven in tandem. Stimulation train parameters varied in different preparations but a common regime consisted of a 200 msec train of pulses at 50 Hz, each pulse being 2-5 msec at 40-50 V. Trains were automatically repeated usually at 100 or 50 sec intervals.

[2] = tested on: rat urinary bladder detrusor muscle strips; test: Field stimulation contractions of isolated smooth muscle (organ bath tension recording)
Method: (§2) Smooth muscle preparations were obtained from male Wistar strain albino rats. The animals were killed by a blow to the head and smooth muscle strips (about 2 mm x 10 mm) were dissected from the bladder. The vasa deferentia were divided into two portions and longitudinally bisected. Tests on cardiac muscle were carried out using isolated cannulated flounder heart. All mammalian preparations were maintained in Krebs solution containing NaCl : 120.7 mM; NaH₂PO₄ : 1.3 mM; KCl : 5.9 mM; NaHCO₃ : 15.5 mM and CaCl₂ : 2.5mM; glucose : 11.5 mM. MgCl₂ : 1.2mM The Krebs solution was adjusted to pH 7.3 with HCl and was continuously aerated and maintained at 37°C.
as §1, with “intervals. The techniques have been described in detail by Huddart and Butler (1986) in Gen. Pharmac., 17, 695-703 (1986).” for “intervals.”
(§3) The smooth muscle preparations were threaded through two silver/silver chloride ring electrodes (4 mm inside diameter), mounted 10 mm apart on a perspex rod. The bottom ligature was passed through a fine hole in a nylon screw at the base of the rod. By turning the screw the muscle strip could be drawn exactly through the electrode rings. The electrode assemblies were then placed in the jacketed organ baths as described above and the upper muscle ligatures attached to the transducer to measure tension. Both the vas deferens and the bladder smooth muscles responded to the field stimulation with consistent repeatable contractions. It is believed that these contractions are calcium-dependent via the operation of slow calcium channels. The effect of ABA on these contractions was tested by adding a concentrated solution thereof to the perfusion solution to give an overall ABA concentration of 10⁻⁶M. In the two vas deferens studies the slow calcium channel blocker nifedipine was then added in the same manner to produce a concentration of 10⁻⁷M. […]

[3] = tested on: rat vas deferens smooth muscle; test: as above
Method: as §2
as §1, with “intervals. The techniques have been described in detail by Huddart and Butler (1986) in Gen. Pharmac., 17, 695-703 (1986).” for “intervals.”
as §3

flounder heart = test: Contractile force of isolated cannulated heart
Method: as §2
The flounder heart was maintained at 10°C in flounder saline containing NaCl : 116.7 mM, CaCl₂ : 1.72 mM, Na₂SO₄ : 18.6 mM, TES : 2.5 mM and KCl : 2.71 mM, glucose : 5.0 mM MgSO₄ : 0.67 mM, at pH 7.65.
as §1, with “intervals. The techniques have been described in detail by Huddart and Butler (1986) in Gen. Pharmac., 17, 695-703 (1986).” for “intervals.”
The contractile force in flounder heart was measured before and after addition of ABA to the perfusion solution.

[4] = tested on: rat urinary bladder detrusor muscle strips; test: High-K (60 mM K+) contracture response of K+-depolarized muscle
Method: as §2
as §1, with “intervals. The techniques have been described in detail by Huddart and Butler (1986) in Gen. Pharmac., 17, 695-703 (1986).” for “intervals.”
(A) Rat urinary bladder detrusor muscle strips were tested in a high-K saline prepared by substitution of sodium compounds in the Krebs' solution by equimolar amounts of potassium compounds to give a K+ concentration of 60 mM. At this level of depolarization it is believed that the fast calcium channels are voltage-inactivated. […]

[5] = tested on: microsomal calcium efflux; test: Potassium-stimulated microsomal calcium efflux; format: biochemical
[6] = Field stimulation response (more recent findings, tissue not stated); settings: no tissue or concentration printed
[7] = Rattus norvegicus, read-out: enhanced field stimulation responses

SMILES	activity in enhancing K+-induced contracture tension [1]	threshold / potency relative to ABA ([1]; rat vas deferens)	inhibition of the ABA augmentation of the field stimulation response (and of the response itself) ([2]; nifedipine after ABA 10⁻⁶M, bladder)	inhibition of the ABA augmentation of the field stimulation response (and of the response itself) ([3]; nifedipine 10⁻⁷M added after ABA 10⁻⁶M, vas deferens)	inhibition of the ABA action on contractile force (flounder heart; nifedipine after ABA 10⁻⁶M)	activation at 1 µM [2, 7] [%]	activation at 1 µM [3, 7] [%]	tonic phase of the response ([4]; ABA 10⁻⁶ M in high-K saline, added just after the initial phasic response)	contracture tension ([4]; ABA 10⁻⁶M, K+-depolarized muscle, result in words)	activation at 1 µM ([4]; Rattus norvegicus, 0.25 h, ABA 10⁻⁶ M added 15 minutes before the high-K solution (K+ 60 mM), read-out: enhancement of contracture tension) [%]	contractile force (flounder heart; ABA 10⁻⁶M in perfusion solution, 10°C)	cardiac arrhythmia (flounder heart; prolonged ABA exposure (15 minutes))	EC (100% enhancement) ([1]; rat vas deferens, partly depolarized, read-out: threshold for 100% enhancement of K contracture tension) [µM]	potassium-stimulated microsomal calcium efflux [5]	field stimulation response [6]
COC(=O)C1=C(C)NC(C)=C([N+](=O)[O-])C1c1ccccc1C(F)(F)F (stereo not shown) [BAY K 8644, methyl 1,4-dihydro-2,6-dimethyl-5-nitro-4-[2-(trifluoromethyl)-phenyl]-3-pyridinecarboxylate, reference compound]	identical activity	roughly one order of magnitude greater than ABA													
COC(=O)C1=C(C)NC(C)=C(C(=O)OC)C1c1ccccc1[N+](=O)[O-] [nifedipine, reference compound]			inhibited	inhibited	inhibited										
CC1=CC(=O)CC(C)(C)C1(O)/C=C/C(C)=C\C(=O)O (racemic) [ABA, (1ʹS,2Z,4E)-5-(1ʹ-hydroxy-2ʹ,6ʹ,6ʹ-trimethyl-4ʹ-oxocyclohex-2ʹ-enyl)-3-methyl-penta-2,4-dienoic acid]	identical activity					~25	~25	enhanced; also recorded: considerable enhancement	considerably augmented	50	augment	pronounced cardiac arrhythmia	~0.005	enhances	enhances

Source: patent publication EP0240257A2, “Compounds and pharmaceutical preparations having calcium - regulatory activity” (University of Lancaster, priority 1986, dated 1987)
